In article PMC4947907, “Lupin Peptides Modulate the Protein-Protein Interaction of PCSK9 with the Low Density Lipoprotein Receptor in HepG2 Cells” (Scientific Reports, 2016):
No end group written: not given here.

Assays:
[1] = target: T1, PCSK9-LDLR interaction (recombinant His-tagged PCSK9 / recombinant LDLR-AB domain) (Homo sapiens, UniProt Q8NBP7); test: In vitro PCSK9-LDLR binding assay (solid-phase, CycLex); conditions: synthetic peptide, absorbance 450 nm versus vehicle, average ± SEM of three independent experiments in duplicate
T1 construct: purchased CycLex Co., Nagano, Japan
Protocol: In vitro experiments were performed using a solid-phase binding assay between recombinant His-tagged PCSK9 and recombinant LDLR-AB domain.
The commercial assay provides a plate pre-coated with a recombinant LDLR-AB domain, which is the PCSK9 binding site. For screening direct inhibitors of the PCSK9-LDLR interaction, lupin peptides were added to the proper amount of His-tagged PCSK9 in each well coated with LDLR-AB domain. Biotinylated anti-His-tag monoclonal antibody specifically reacted with recombinant His-tagged PCSK9 trapped with LDLR-AB domain immobilized on the microplate surface. The inhibitory effects were analyzed measuring the amount of His-tagged PCSK9 on the well. In particular, the inhibitory effect, calculated as % PCSK9-LDLR binding inhibition, determines a reduction of absorbance measured at 450 nm using the Synergy H1 fluorescent plate reader from Biotek versus vehicle control. Data points represent averages ± SEM of three independent experiments in duplicate. ***p < 0.0001 **p < 0.001 versus C.
The employed assay provides a plate pre-coated with a recombinant LDLR-AB domain, which is the PCSK9 binding site. For screening, the peptides were added to proper amount of His-tagged PCSK9 in each well coated with LDLR-AB domain. Biotinylated anti-His-tag monoclonal antibody specifically reacts with recombinant His-tagged PCSK9 trapped with LDLR-AB domain immobilized on the microplate surface. […] Data points represent averages ± SEM of three independent experiments in duplicate. *p < 0.05 **P < 0.001 versus C.
P-tot peptides (1.0 and 2.5 μg/μl), T-tot peptides (0.5 and 1.0 μg/μl), P-abs (12.5 ng/μl) and T-abs peptides (16.0 ng/μl) were tested using the in vitro PCSK9-LDLR binding assay (CycLex Co., Nagano, Japan) following the manufacture instructions. […] The reaction was stopped with 2.0 N sulfuric acid and the absorbance at 450 nm was measured using the Synergy H1 fluorescent plate reader (Biotek, Bad Friedrichshall, Germany).
The absorbance at 450 nm was measured using the Synergy H1 fluorescent plate reader (Biotek, Bad Friedrichshall, Germany).

Caco-2 cells = test: Absorption in differentiated Caco-2 cells grown in two-compartment system; peptides identified/quantified in basolateral solution; type: in vitro ADME, human; conditions: Caco-2 AP to BL, 4 h
From the text: Lupin protein consumption provides some health benefits in the area of hypercholesterolemia prevention. Studies in animal models[31][32] and in the clinics[33][34] have shown that the protein itself is a main hypocholesterolemic agent. […] Another investigation in human Caco-2 cells has provided evidence that at least some of these peptic and tryptic peptides may be absorbed in the small intestine, since they are transferred from the apical (AP) to the basolateral (BL) compartment in differentiated Caco-2 cells grown in a two-compartment system.
Precisely, Caco-2 cells have been incubated for 4 h in the AP chamber with 500 μl of a 1.0 μg/μl solution of P-tot or T-tot peptides and, at the end of treatment, BL solutions (700 μl) have been collected and absorbed peptic and tryptic peptides identified by HPLC-Chip ESI-MS/MS[37]. The BL solutions were then dried and diluted to 100 μl to obtain the solutions P-abs and T-abs at the concentration of 0.25 and 0.32 μg/μl, respectively. Both solutions were used for the present experiments.
The peptic (P-tot) and tryptic (T-tot) hydrolyzates from lupin protein are the same used in a previous paper, in which their capability to modulate cholesterol metabolism in HepG2 cells was investigated. […]

PCSK9-LDLR interaction = conditions: ref 23 (Zhang and coworkers); read-out: IC50, PCSK9-LDLR inhibition; cited from earlier work
From the text: P5 is thus one of the shortest peptides ever described in literature endowed with this specific activity.

[2] = target: recombinant His-tagged PCSK9 wild type (proprotein convertase subtilisin/kexin type 9) (human, UniProt Q8NBP7 153-692, Limits of the kit protein are not printed. Taken as secreted, autocleaved PCSK9: prodomain 31-152 non-covalently bound to mature chain 153-692, from UniProt features. His tag omitted.); test: ELISA; CycLex in vitro PCSK9-LDLR binding assay: plate pre-coated with LDLR-AB domain; His-tagged PCSK9 added with vehicle or synthetic peptides T9 (32-320 uM) or P5 (0.001-100 uM), 2 h at room temperature; bound PCSK9 detected with biotinylated anti-His-tag antibody, absorbance at 450 nm; conditions: both partners purified
Chain of recombinant His-tagged PCSK9 wild type (proprotein convertase subtilisin/kexin type 9) (Q8NBP7 153-692): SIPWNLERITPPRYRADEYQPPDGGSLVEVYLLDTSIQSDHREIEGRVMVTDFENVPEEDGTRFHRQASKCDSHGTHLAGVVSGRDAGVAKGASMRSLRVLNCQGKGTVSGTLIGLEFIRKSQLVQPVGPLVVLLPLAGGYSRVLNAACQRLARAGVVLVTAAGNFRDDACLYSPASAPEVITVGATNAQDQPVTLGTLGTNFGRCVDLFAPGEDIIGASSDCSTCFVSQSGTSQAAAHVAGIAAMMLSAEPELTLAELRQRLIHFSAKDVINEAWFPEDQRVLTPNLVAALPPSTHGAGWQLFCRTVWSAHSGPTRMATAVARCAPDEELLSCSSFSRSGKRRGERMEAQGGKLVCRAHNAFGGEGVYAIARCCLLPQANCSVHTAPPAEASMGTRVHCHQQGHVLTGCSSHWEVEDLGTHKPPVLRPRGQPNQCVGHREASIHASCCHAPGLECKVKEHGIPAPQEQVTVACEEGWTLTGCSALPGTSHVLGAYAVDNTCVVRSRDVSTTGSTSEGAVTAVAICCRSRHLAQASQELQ

T1 sequence (Q8NBP7 153-692): as above
T1 sequence (Q8NBP7 31-152 partner limits assumed): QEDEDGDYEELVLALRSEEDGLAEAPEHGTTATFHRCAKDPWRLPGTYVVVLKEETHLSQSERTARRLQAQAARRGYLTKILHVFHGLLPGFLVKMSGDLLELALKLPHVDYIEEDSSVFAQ

CC[C@H](C)[C@H](NC(=O)[C@@H](NC(=O)CNC(=O)[C@H](CCC(=O)O)NC(=O)[C@H](CC(=O)O)NC(=O)[C@H](CCC(N)=O)NC(=O)[C@H](Cc1c[nH]cn1)NC(=O)[C@H](CO)NC(=O)[C@H](CCC(N)=O)NC(=O)[C@H](CCC(=O)O)NC(=O)[C@H](CCC(N)=O)NC(=O)CN)C(C)C)C(=O)N[C@H](C(=O)N[C@@H](CCCNC(=N)N)C(=O)O)C(C)C [Peptide T9] showed an inhibition at 32 µM ([1]; 32 μM) of 19 ± 8.47%, an inhibition at 160 µM ([1]; 160 μM) of 33 ± 5.33% and an inhibition at 320 µM ([1]; […] μM) of 53 ± 1.02%.

For LILPKHSDAD [Peptide P5], the “P5 concentration in the P-abs solution” value (Caco-2 cells; AP 500 μl of 1.0 μg/μl P-tot, BL solution (700 μl) dried and diluted to 100 μl, HPLC-MS/MS m/z 554.8 → 770.0, external calibration with synthetic standard, three injections) was 28.64 ± 0.43 ng/µL and the “P5 share of total peptic peptides absorbed by Caco-2 cells” value (Caco-2 cells; P-abs sample, HPLC-MS/MS) was 11.5%.

For Ac-TVFTSWEEYLDWV-amide [Pep2-8], the IC50 (PCSK9-LDLR interaction) is listed as 810 ± 80 nM.

B1: P5 (peptide)
peptide: LILPKHSDAD
notes: peptic peptide of Lupinus albus β2-conglutin (beta-conglutin precursor); source: synthetic peptide (PRIMM, Milan), >95% pure by HPLC
Work on B1 yielded an IC50 [2] of 1600 nM.
